Converted amounts (≈) assume the structure as drawn.
Legend:
[1] = test system: tumor microtubule proteins of cancer cells; parameters: method as in doi:10.1016/j.molstruc.2022.132636, PMID 22721782; conditions: cited from earlier work
prostate cancer (PC3) = assay: MTT cytotoxicity assay, prostate cancer (PC3); format: cell-based
Description: (§1) The cell lines laboratory at Vacsera, Dokkey, Giza, Egypt provided colon cancer (Caco2), cervical cancer (HeLa), prostate cancer (PC3), breast cancer (MCF7), hepatocellular carcinoma (HepG2) and normal human fetal lung fibroblast (WI38). The sterility of the process was maintained using a laminar airflow cabinet. The Roswell Park Memorial Institute medium (RPMI 1640) was used to sustain the cell culture. […] The 10% heat-inactivated fetal bovine serum was used to supplement the medium. The 3-(4,5-dimethylthiazol-2-yl)-2,5-diphenyl-2H-tetrazolium bromide (MTT) assay was employed to measure cytotoxicity. A purple formazan was created from the yellow MTT via a mitochondrial reduction. For inoculation, a 96-well microplate was filled with 1 × 10^5 cells per well in 100 μL of Roswell Park Memorial Institute medium (RPMI 1640). Conditions of 5% CO2, 37 °C and 95% humidity were used to incubate the microplate for 24 h to produce a completely formed monolayer sheet. After the cells formed a confluent layer, the growth media was decanted from 96-well microplates. […] Confluent cell monolayers were injected with 0.1 mL of the extract at each concentration using a multichannel pipette, and then they were dispersed throughout the 96 wells. The cells that were treated with the extracts were incubated at 37 °C and 5% CO2 for 24 h. […] The optical density at 560 nm was determined using a microplate reader. […]

[2] = test system: hepatocellular carcinoma (HepG2); assay: MTT cytotoxicity assay, hepatocellular carcinoma (HepG2); format: cell-based
Description: as §1

breast cancer (MCF7) = assay: MTT cytotoxicity assay, breast cancer (MCF7); format: cell-based
Description: as §1

cervical cancer (HeLa) = assay: MTT cytotoxicity assay, cervical cancer (HeLa); format: cell-based
Description: as §1

colon cancer (Caco2) = assay: MTT cytotoxicity assay, colon cancer (Caco2); format: cell-based
Description: as §1

[3] = test system: normal human fetal lung fibroblast (WI38); assay: MTT cytotoxicity assay, normal fibroblast (WI38); format: cell-based; conditions: WI-38, mean ± standard deviation
Description: as §1

| Compound | antitumor effect on assembly of tumor microtubule proteins [1] | SI: selectivity index (prostate cancer (PC3); IC50 of non-cancer cell line (WI38) / IC50 of PC3) | IC50 (prostate cancer (PC3); MTT assay, prostate cancer (PC3), mean ± standard deviation) [µg/mL] | IC50 ([2]; Homo sapiens, MTT assay, hepatocellular carcinoma (HepG2), mean ± standard deviation) [µg/mL] | SI: selectivity index ([2]; IC50 of non-cancer cell line (WI38) / IC50 of HepG2) | IC50 (breast cancer (MCF7); Homo sapiens, MTT assay, breast cancer (MCF7), mean ± standard deviation) [µg/mL] | SI: selectivity index (breast cancer (MCF7); IC50 of non-cancer cell line (WI38) / IC50 of MCF7) | IC50 (cervical cancer (HeLa); Homo sapiens, MTT assay, cervical cancer (HeLa), mean ± standard deviation) [µg/mL] | SI: selectivity index (cervical cancer (HeLa); IC50 of non-cancer cell line (WI38) / IC50 of HeLa) | IC50 (colon cancer (Caco2); Homo sapiens, Caco-2, MTT assay, colon cancer (Caco2), mean ± standard deviation) [µg/mL] | SI: selectivity index (colon cancer (Caco2); IC50 of non-cancer cell line (WI38) / IC50 of Caco2) | IC50 [3] [µg/mL] |
| --- | --- | --- | --- | --- | --- | --- | --- | --- | --- | --- | --- | --- |
| Calystegine B | preventing the assembly of tumor microtubule proteins |  |  |  |  |  |  |  |  |  |  |  |
| COc1cccc2c1C(=O)c1c(O)c3c(c(O)c1C2=O)C[C@@](O)(C(=O)CO)C[C@@H]3O[C@H]1C[C@H](N)[C@H](O)[C@H](C)O1 [Doxorubicin, doxorubicin] |  | 1.3 | 38 ± 2 (≈ 69.9 µM) | 44 ± 3 (≈ 81 µM) | 1.1 | 36 ± 6 (≈ 66.2 µM) | 1.4 | 40 ± 2 (≈ 73.6 µM) | 1.2 | 70.1 ± 1 (≈ 129 µM) | 0.7 | 51 ± 4 (≈ 93.8 µM) |

— publication PMC9863965 (Molecules, 2023)
